Columns and labels:
Format in all cases: cell-based
[1] = biological target: T1, AURKB (Homo sapiens, UniProt Q96GD4); assay: Expression proteomics in THP-1 cells: AURKB protein level
T1 construct: endogenous in cells; host or cells: THP-1
Protocol: (§1) THP-1 cells were seeded at a concentration of 3×10^6 cells in T175 flasks with 60 mL growth medium (RPMI1640+10% FBS). […] of a 10× compound solution prepared in growth medium (DMSO), CEREBLON_PROTAC) was added and the cells were treated for the indicated time points (6 or 24 h) at 37° C., 5% CO2. For harvesting the cells were collected into falcon tubes on ice, centrifuged and washed twice in cold PBS (Life technologies). After the last washing step the supernatant was removed and the pellets were snap-frozen in liquid N2 and stored at −80° C. and lysed in 2% SDS for 3 min at 95° C. in a thermomixer (Thermo Fisher Scientific), followed by digestion of DNA with Benzonase at 37° C. for 1.5 h. Lysate was cleared by centrifugation an protein concentration in supernatant was determined by BCA assay.
(§2) Leukemia 25, 89-100 (2011).
(§3) Samples were dried in vacuo and resuspended in 0.05% trifluoroacetic acid in water. Of the sample, 50% was injected into an Ultimate3000 nanoRLSC (Dionex, Sunnyvale, Calif.) coupled to a Q Exactive HF (Thermo Fisher Scientific). Peptides were trapped on a 5 mm×300 μm C18 column (Pepmap100, 5 μm, 300 Å, Thermo Fisher Scientific) in water with 0.05% TFA at 60° C. Separation was performed on custom 50 cm×[…] (ID) reversed-phase columns (Reprosil) at 55° C. Gradient elution was performed from 2% acetonitrile to 40% acetonitrile in 0.1% formic acid and 3.5% DMSO over 2 hours. Samples were online injected into Q-Exactive HF mass spectrometers operating with a data-dependent top 10 method. MS spectra were acquired by using 60.000 resolution and an ion target of 3×10^6. Higher energy collisional dissociation (HCD) scans were performed with 35% NCE at 30.000 resolution (at m/z 200), and the ion target settings was set to 2×10^5 so as to avoid coalescence (Werner, T. et al. Ion Coalescence of Neutron Encoded TMT 10-Plex Reporter Ions. Anal. Chem. 86, 3594-3601 (2014).
(§4) The first search was performed with 30 parts per million mass tolerance for peptide precursors and 30 mD (HCD) mass tolerance for fragment ions followed by a final search using recalibrated data with a 10 parts per million mass tolerance for peptide precursors and 20 mD (HCD) mass tolerance for fragment ions. Carbamidomethylation of cysteine residues and TMT modification of lysine residues were set as fixed modifications and methionine oxidation, and N-terminal acetylation of proteins and TMT modification of peptide N-termini were set as variable modifications. […]
(§5) Nat Biotech 29, 255-265 (2011). this measure is referred to as ion area Savitski, M. M. et al. Delayed Fragmentation and Optimized Isolation Width Settings for Improvement of Protein Identification and Accuracy of Isobaric Mass Tag Quantification on Orbitrap-Type Mass Spectrometers. […]

[2] = biological target: T2, PRKAA1 (Homo sapiens, UniProt Q13131); assay: Expression proteomics in THP-1 cells: PRKAA1 protein level; conditions: PRKAA1, THP-1 cells
T2 construct: endogenous in cells; host or cells: THP-1
T2 sequence (Q13131 whole entry): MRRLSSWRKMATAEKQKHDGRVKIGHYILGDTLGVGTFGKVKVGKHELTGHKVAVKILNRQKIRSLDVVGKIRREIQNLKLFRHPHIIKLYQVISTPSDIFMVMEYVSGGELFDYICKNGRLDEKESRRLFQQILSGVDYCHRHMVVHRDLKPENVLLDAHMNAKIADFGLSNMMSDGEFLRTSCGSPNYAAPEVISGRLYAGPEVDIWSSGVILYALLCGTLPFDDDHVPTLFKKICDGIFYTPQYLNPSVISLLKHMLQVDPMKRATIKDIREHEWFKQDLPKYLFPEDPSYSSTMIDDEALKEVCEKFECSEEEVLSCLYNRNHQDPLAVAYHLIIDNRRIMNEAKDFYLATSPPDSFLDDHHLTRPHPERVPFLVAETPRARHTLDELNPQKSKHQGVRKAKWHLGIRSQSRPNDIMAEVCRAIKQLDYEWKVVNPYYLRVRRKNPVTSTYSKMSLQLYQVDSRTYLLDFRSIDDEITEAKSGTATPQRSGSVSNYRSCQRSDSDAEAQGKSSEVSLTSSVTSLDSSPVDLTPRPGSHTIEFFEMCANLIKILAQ
T2 sequence (Q9Y478 2-270 partner limits assumed): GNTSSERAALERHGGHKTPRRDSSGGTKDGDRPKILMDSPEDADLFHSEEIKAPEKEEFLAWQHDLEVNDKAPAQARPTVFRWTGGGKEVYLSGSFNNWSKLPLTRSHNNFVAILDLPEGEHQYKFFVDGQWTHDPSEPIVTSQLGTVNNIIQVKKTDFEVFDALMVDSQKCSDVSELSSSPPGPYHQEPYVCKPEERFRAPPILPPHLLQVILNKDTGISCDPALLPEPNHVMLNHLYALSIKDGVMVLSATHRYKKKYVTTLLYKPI
T2 sequence (P54619 whole entry partner): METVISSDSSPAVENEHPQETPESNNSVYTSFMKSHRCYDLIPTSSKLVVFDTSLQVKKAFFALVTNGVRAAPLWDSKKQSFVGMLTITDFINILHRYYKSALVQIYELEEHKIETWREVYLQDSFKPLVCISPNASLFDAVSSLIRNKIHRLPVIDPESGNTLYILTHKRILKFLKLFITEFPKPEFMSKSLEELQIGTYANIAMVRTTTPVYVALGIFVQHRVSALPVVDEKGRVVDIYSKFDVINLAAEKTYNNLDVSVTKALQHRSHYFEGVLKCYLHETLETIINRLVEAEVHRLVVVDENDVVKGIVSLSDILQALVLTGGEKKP
Protocol: as §1, §2, §3, §4, §5

[3] = biological target: T3, PTK2 (Homo sapiens, UniProt Q05397); assay: Expression proteomics in THP-1 cells: PTK2 protein level; conditions: PTK2, THP-1 cells
T3 construct: endogenous in cells; host or cells: THP-1
T3 sequence (Q05397 whole entry): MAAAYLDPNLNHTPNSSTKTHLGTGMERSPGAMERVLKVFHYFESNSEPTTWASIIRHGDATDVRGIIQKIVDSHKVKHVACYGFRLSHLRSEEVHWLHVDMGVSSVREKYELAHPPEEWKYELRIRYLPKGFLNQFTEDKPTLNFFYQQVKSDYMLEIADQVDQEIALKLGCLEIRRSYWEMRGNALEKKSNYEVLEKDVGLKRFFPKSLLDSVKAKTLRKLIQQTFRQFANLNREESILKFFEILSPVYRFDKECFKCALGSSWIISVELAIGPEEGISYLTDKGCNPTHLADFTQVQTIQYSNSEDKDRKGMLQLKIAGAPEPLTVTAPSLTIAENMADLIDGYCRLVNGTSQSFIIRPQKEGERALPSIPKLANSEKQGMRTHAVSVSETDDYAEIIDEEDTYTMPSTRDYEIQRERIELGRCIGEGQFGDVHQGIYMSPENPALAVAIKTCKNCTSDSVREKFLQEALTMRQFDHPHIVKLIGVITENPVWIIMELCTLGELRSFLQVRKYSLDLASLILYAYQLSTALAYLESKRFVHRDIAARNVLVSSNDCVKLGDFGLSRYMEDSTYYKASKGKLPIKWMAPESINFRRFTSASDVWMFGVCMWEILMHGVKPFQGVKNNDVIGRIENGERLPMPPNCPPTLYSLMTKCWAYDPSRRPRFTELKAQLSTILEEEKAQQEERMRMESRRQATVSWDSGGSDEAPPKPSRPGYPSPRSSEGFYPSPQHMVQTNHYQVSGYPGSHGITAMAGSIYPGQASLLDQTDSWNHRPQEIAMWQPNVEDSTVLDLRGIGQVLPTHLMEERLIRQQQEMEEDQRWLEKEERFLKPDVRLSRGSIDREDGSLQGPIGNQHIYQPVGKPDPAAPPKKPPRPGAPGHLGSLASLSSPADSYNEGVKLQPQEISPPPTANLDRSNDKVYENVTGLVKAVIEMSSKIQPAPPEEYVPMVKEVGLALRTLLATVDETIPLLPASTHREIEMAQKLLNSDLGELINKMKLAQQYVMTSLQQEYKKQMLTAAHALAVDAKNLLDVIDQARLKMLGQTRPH
Protocol: as §1, §2, §3, §4, §5

[4] = biological target: T4, RPS6KA1 (Homo sapiens, UniProt Q15418); assay: Expression proteomics in THP-1 cells: RPS6KA1 protein level; conditions: RPS6KA1, THP-1 cells
T4 construct: endogenous in cells; host or cells: THP-1
T4 sequence (Q15418 whole entry): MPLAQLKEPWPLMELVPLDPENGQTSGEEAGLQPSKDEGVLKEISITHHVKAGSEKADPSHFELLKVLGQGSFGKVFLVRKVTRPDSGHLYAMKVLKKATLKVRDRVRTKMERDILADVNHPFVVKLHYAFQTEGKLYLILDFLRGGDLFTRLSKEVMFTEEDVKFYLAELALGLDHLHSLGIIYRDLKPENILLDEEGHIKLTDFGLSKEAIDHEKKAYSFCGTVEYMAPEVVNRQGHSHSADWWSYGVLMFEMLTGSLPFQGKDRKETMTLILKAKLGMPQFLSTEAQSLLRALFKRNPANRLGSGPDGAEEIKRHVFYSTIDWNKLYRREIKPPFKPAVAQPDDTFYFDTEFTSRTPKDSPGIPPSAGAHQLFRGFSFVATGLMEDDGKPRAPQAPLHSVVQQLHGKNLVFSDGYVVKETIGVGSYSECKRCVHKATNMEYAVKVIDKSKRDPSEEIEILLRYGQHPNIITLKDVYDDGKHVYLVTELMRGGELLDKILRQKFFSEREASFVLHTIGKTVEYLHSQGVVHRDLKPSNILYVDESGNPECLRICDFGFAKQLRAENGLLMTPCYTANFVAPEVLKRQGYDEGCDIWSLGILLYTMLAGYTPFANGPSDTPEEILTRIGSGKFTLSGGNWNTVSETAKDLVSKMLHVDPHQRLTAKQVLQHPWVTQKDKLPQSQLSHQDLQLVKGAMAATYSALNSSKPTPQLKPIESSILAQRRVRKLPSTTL
Protocol: as §1, §2, §3, §4, §5

[5] = biological target: T5, AURKA (Homo sapiens, UniProt O14965); assay: Expression proteomics in THP-1 cells: AURKA protein level
T5 construct: endogenous in cells; host or cells: THP-1
T5 sequence (O14965 1-403): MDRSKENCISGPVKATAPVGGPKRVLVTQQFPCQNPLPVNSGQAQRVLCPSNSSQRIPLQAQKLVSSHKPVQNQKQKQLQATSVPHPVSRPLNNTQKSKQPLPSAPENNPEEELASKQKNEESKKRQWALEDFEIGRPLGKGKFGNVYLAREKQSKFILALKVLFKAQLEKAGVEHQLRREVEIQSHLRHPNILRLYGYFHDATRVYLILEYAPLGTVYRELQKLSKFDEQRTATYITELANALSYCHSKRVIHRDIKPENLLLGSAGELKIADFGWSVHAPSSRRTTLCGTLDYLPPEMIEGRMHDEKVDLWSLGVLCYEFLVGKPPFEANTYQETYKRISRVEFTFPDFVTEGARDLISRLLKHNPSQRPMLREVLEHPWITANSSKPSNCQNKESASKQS
Protocol: as §1, §2, §3, §4, §5

T1 sequence (Q96GD4 whole entry): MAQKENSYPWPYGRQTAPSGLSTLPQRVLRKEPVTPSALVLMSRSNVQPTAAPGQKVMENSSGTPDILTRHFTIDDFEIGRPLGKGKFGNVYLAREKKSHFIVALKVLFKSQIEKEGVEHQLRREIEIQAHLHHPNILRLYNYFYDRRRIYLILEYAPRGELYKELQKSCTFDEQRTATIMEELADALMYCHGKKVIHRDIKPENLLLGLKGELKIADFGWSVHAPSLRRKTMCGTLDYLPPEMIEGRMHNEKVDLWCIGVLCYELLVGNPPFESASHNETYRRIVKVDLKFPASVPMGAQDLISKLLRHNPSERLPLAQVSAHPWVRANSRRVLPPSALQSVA

With CNC(=O)c1ccccc1Nc1nc(Nc2ccc(N3CCN(CCOCCOCCOCCOCC(=O)Nc4cccc5c4CN(C4CCC(=O)NC4=O)C5=O)CC3)cc2)ncc1Cl.O=CO (centres unmarked) [CEREBLON_PROTAC, 14-(4-(4-((5-Chloro-4-((2-(methylcarbamoyl)phenyl)amino)pyrimidin-2-yl)amino)phenyl)piperazin-1-yl)-N-(2-(2,6-dioxopiperidin-3-yl)-1-oxoisoindolin-4-yl)-3,6,9,12-tetraoxatetradecan-1-amide formate] the “log2 rel. fc. to vehicle control” value ([1]; 24 h 0.1 μM, n = 1) was −1.75, the “log2 rel. fc. to vehicle control” value ([1]; 24 h 0.1 μM, n = 2) was −1.44 and the “log2 rel. fc. to vehicle control” value ([1]; 24 h 1 μM, n = 1) was −0.83. The “log2 rel. fc. to vehicle control” value ([1]; 24 h 1 μM, n = 2) was −1.33, the “log2 rel. fc. to vehicle control” value ([2]; 24 h 0.1 μM, n = 1) was −0.38 and the “log2 rel. fc. to vehicle control” value ([2]; 24 h 0.1 μM, n = 2) was −0.74. For the same compound, the “log2 rel. fc. to vehicle control” value ([2]; 24 h 1 μM, n = 1) was −1.06, the “log2 rel. fc. to vehicle control” value ([2]; 24 h 1 μM, n = 2) was −1.35 and the “log2 rel. fc. to vehicle control” value ([3]; 24 h 0.1 μM, n = 1) was −2.29. For the same compound, the “log2 rel. fc. to vehicle control” value ([3]; 24 h 0.1 μM, n = 2) was −2.92, the “log2 rel. fc. to vehicle control” value ([3]; 24 h 1 μM, n = 1) was −2.42 and the “log2 rel. fc. to vehicle control” value ([3]; 24 h 1 μM, n = 2) was −2.20. The “log2 rel. fc. to vehicle control” value ([4]; 24 h 0.1 μM, n = 1) was −1.65, the “log2 rel. fc. to vehicle control” value ([4]; 24 h 0.1 μM, n = 2) was −1.55 and the “log2 rel. fc. to vehicle control” value ([4]; 24 h 1 μM, n = 1) was −1.86. The “log2 rel. fc. to vehicle control” value ([4]; 24 h 1 μM, n = 2) was −1.93, the “log2 rel. fc. to vehicle control” value ([5]; 24 h 0.1 μM, n = 1) was −1.45 and the “log2 rel. fc. to vehicle control” value ([5]; 24 h 0.1 μM, n = 2) was −1.00. The “log2 rel. fc. to vehicle control” value ([5]; 24 h 1 μM, n = 1) was −2.10 and the “log2 rel. fc. to vehicle control” value ([5]; 24 h 1 μM, n = 2) was −1.93.
